According to patent US5677419A, “Cyclic vasoactive peptide analogs” (Hoffmann-La Roche Inc., priority 1994, dated 1997):
Where a SMILES comes first, the peptide text is derived from it. Bridges are numbered along the chain shown (N, C = ends). [ ]: non-standard residue; d: D form. 2Nal = N[C@@H](Cc1ccc2ccccc2c1)C(=O)O; Nle = CCCC[C@H](N)C(=O)O; Orn = NCCC[C@H](N)C(=O)O

The compounds below were run on guinea pig tracheal smooth muscle (assay: Tracheal relaxant activity of VIP analogs on isolated guinea pig tracheal rings). Conditions: cumulative concentration response, relaxation as % of maximum response to VIP (10^-6 M=100%), three tissues pooled, linear regression.
Format: cell-based
Protocol: The relaxant activity of the VIP analogs were studied in a model utilizing guinea pig trachea. [Wasserman, M. A. et al., in Vasoactive Intestinal Peptide, S. I. Said, ed., Raven Press, New York 1982, pp 177-184] All tissues were taken from male albino guinea pig weighing 400-600 g, anesthetized with urethane (2 g/kg, i.p.). After exanguination, the trachea were removed and divided into four ring segments (3 mm length). Each ring was suspended by 30 gauge stainless steel wires in a 10 mL jacketed tissue bath and attached via 4-0 silk thread to a GRASS force displacement transducer (model FT03C, Grass Instruments Co., Quincy, Mass.), for isometric recording of tension. The smooth muscle was bathed in modified Krebs solution of the following composition: NaCl, 120 mM; KCl, 4.7 mM; CaCl2, 2.5 mM; MgSO4.7H2 O, 1.2 mM; NaHCO3, 25 mM; K2 HPO4 monobasic, 1.2 mM; and dextrose, 10 mM. Tissue baths were maintained at 37° C. and constantly bubbled with 95% O2 and 5% CO2. Responses were recorded on an 8 channel and a 4 channel HEWLETT-PACKARD (model 7702B and 7754A, respectively) recorder (Hewlett- Packard, Paramus, N.J.). Tracheal rings were placed under a resting tension of 1.5 g which was determined to be at or near optimal in preliminary experiments. Frequent readjustments of tension were required during the 60 minute stabilization period which followed. Tissues were rinsed at 15 minute intervals.
Cumulative concentration response curves were obtained for each tissue by successive […] increases in the bath concentration of VIP or VIP analogs according to the method of VanRossum [Arch. Int. Pharmacodyn., 143, 299-330 (1963)]. Only one cumulative dose response curve was obtained on a single tissue. To minimize variability between tissues, relaxant responses were expressed as a percentage of the maximum response obtained to VIP (10^-6 M=100%) added at the end of each concentration response experiment. Responses obtained from three tissues were pooled and EC50 values were determined by linear regression.
The results summarized in Table I show the tracheal relaxant activity of the VIP analogs in comparison to native VIP.

| Compound | EC50 [nM] |
| --- | --- |
| CCCC[C@H](NC(=O)[C@H](CCC(N)=O)NC(=O)[C@H](CCCCN)NC(=O)[C@H](CCCNC(=N)N)NC(=O)[C@H](CC(C)C)NC(=O)[C@@H]1CC(=O)NCCCC[C@H](NC(=O)[C@@H](NC(=O)[C@H](Cc2ccccc2)NC(=O)[C@@H](NC(=O)[C@H](C)NC(=O)[C@H](CC(=O)O)NC(=O)[C@H](CO)NC(=O)[C@H](Cc2c[nH]cn2)NC(C)=O)C(C)C)[C@@H](C)O)C(=O)N[C@@H](CC(N)=O)C(=O)N[C@@H](Cc2ccc(O)cc2)C(=O)N[C@@H]([C@@H](C)O)C(=O)N1)C(=O)N[C@@H](C)C(=O)N[C@H](C(=O)N[C@@H](CCCCN)C(=O)N[C@@H](CCCCN)C(=O)N[C@@H](Cc1ccc(O)cc1)C(=O)N[C@@H](CC(C)C)C(=O)N[C@@H](CC(N)=O)C(=O)N[C@@H](CO)C(=O)N[C@H](C(=O)N[C@@H](CC(C)C)C(=O)N[C@H](C(N)=O)[C@@H](C)O)C(C)C)C(C)C [SEQ ID NO:24, Ac-[Lys^8,Asp^12,Nle^17,Val^26,Thr^28]-VIP cyclo (Lys^8 →Asp^12)] (Ac-HSDAVFTKNYTDLRKQ[Nle]AVKKYLNSVLT-NH2; lactam 8-12) | 38 |
| CCCC[C@H](NC(=O)[C@H](CCC(N)=O)NC(=O)[C@H](CCCCN)NC(=O)[C@H](CCCNC(=N)N)NC(=O)[C@H](CC(C)C)NC(=O)[C@@H]1CCCCNC(=O)CC[C@H](NC(=O)[C@@H](NC(=O)[C@H](Cc2ccccc2)NC(=O)[C@@H](NC(=O)[C@H](C)NC(=O)[C@H](CC(=O)O)NC(=O)[C@H](CO)NC(=O)[C@H](Cc2c[nH]cn2)NC(C)=O)C(C)C)[C@@H](C)O)C(=O)N[C@@H](CC(N)=O)C(=O)N[C@@H](Cc2ccc(O)cc2)C(=O)N[C@@H]([C@@H](C)O)C(=O)N1)C(=O)N[C@@H](C)C(=O)N[C@H](C(=O)N[C@@H](CCCCN)C(=O)N[C@@H](CCCCN)C(=O)N[C@@H](Cc1ccc(O)cc1)C(=O)N[C@@H](CC(C)C)C(=O)N[C@@H](CC(N)=O)C(=O)N[C@@H](CO)C(=O)N[C@H](C(=O)N[C@@H](CC(C)C)C(=O)N[C@H](C(N)=O)[C@@H](C)O)C(C)C)C(C)C [SEQ ID NO:21, Ac-[Glu^8,Lys^12,Nle^17,Val^26,Thr^28]-VIP cyclo (Glu^8 →Lys^12)] (Ac-HSDAVFTENYTKLRKQ[Nle]AVKKYLNSVLT-NH2; lactam 8-12) | 34 |
| CCCC[C@H](NC(=O)[C@H](CCC(N)=O)NC(=O)[C@H](CCCCN)NC(=O)[C@H](CCCNC(=N)N)NC(=O)[C@H](CC(C)C)NC(=O)[C@@H]1CCCCNC(=O)C[C@H](NC(=O)[C@@H](NC(=O)[C@H](Cc2ccccc2)NC(=O)[C@@H](NC(=O)[C@H](C)NC(=O)[C@H](CC(=O)O)NC(=O)[C@H](CO)NC(=O)[C@H](Cc2c[nH]cn2)NC(C)=O)C(C)C)[C@@H](C)O)C(=O)N[C@@H](CC(N)=O)C(=O)N[C@@H](Cc2ccc(O)cc2)C(=O)N[C@@H]([C@@H](C)O)C(=O)N1)C(=O)N[C@@H](C)C(=O)N[C@H](C(=O)N[C@@H](CCCCN)C(=O)N[C@@H](CCCCN)C(=O)N[C@@H](Cc1ccc(O)cc1)C(=O)N[C@@H](CC(C)C)C(=O)N[C@@H](CC(N)=O)C(=O)N[C@@H](CO)C(=O)N[C@H](C(=O)N[C@@H](CC(C)C)C(=O)N[C@H](C(N)=O)[C@@H](C)O)C(C)C)C(C)C [SEQ ID NO:20, Ac-[Lys^12,Nle^17,Val^26,Thr^28]-VIP cyclo (Asp^8 →Lys^12)] (Ac-HSDAVFTDNYTKLRKQ[Nle]AVKKYLNSVLT-NH2; lactam 8-12) | 14 |
| CCCC[C@H](NC(=O)[C@H](CCC(N)=O)NC(=O)[C@H](CCCCN)NC(=O)[C@H](CCCNC(=N)N)NC(=O)[C@H](CC(C)C)NC(=O)[C@@H]1CCCNC(=O)C[C@H](NC(=O)[C@@H](NC(=O)[C@H](Cc2ccccc2)NC(=O)[C@@H](NC(=O)[C@H](C)NC(=O)[C@H](CC(=O)O)NC(=O)[C@H](CO)NC(=O)[C@H](Cc2c[nH]cn2)NC(C)=O)C(C)C)[C@@H](C)O)C(=O)N[C@@H](CC(N)=O)C(=O)N[C@@H](Cc2ccc(O)cc2)C(=O)N[C@@H]([C@@H](C)O)C(=O)N1)C(=O)N[C@@H](C)C(=O)N[C@H](C(=O)N[C@@H](CCCCN)C(=O)N[C@@H](CCCCN)C(=O)N[C@@H](Cc1ccc(O)cc1)C(=O)N[C@@H](CC(C)C)C(=O)N[C@@H](CC(N)=O)C(=O)N[C@@H](CO)C(=O)N[C@H](C(=O)N[C@@H](CC(C)C)C(=O)N[C@H](C(N)=O)[C@@H](C)O)C(C)C)C(C)C [SEQ ID NO:23, Ac-[Orn^12,Nle^17,Val^26,Thr^28]-VIP cyclo (Asp^8 →Orn^12)] (Ac-HSDAVFTDNYT[Orn]LRKQ[Nle]AVKKYLNSVLT-NH2; lactam 8-12) | 40 |
| CCCC[C@H](NC(=O)[C@H](CCC(N)=O)NC(=O)[C@H](CCCCN)NC(=O)[C@H](CCCNC(=N)N)NC(=O)[C@H](CC(C)C)NC(=O)[C@@H]1CCCCNC(=O)C[C@H](NC(=O)[C@H](CC(N)=O)NC(=O)[C@@H](NC(=O)[C@H](Cc2ccccc2)NC(=O)[C@@H](NC(=O)[C@H](C)NC(=O)[C@H](CC(=O)O)NC(=O)[C@H](CO)NC(=O)[C@H](Cc2c[nH]cn2)NC(C)=O)C(C)C)[C@@H](C)O)C(=O)N[C@@H](Cc2ccc(O)cc2)C(=O)N[C@@H]([C@@H](C)O)C(=O)N1)C(=O)N[C@@H](C)C(=O)N[C@H](C(=O)N[C@@H](CCCCN)C(=O)N[C@@H](CCCCN)C(=O)N[C@@H](Cc1ccc(O)cc1)C(=O)N[C@@H](CC(C)C)C(=O)N[C@@H](CC(N)=O)C(=O)N[C@@H](CO)C(=O)N[C@H](C(=O)N[C@@H](CC(C)C)C(=O)N[C@H](C(N)=O)[C@@H](C)O)C(C)C)C(C)C [SEQ ID NO:22, Ac-[Asn^8,Asp^9,Lys^12,Nle^17,Val^26,Thr^28]-VIP cyclo (Asp^9 →Lys^12)] (Ac-HSDAVFTNDYTKLRKQ[Nle]AVKKYLNSVLT-NH2; lactam 9-12) | 17 |

Further lines, results first:

| EC50 [nM] | Compound |
| --- | --- |
| 2.6 | CCCC[C@H](NC(=O)[C@H](CCC(N)=O)NC(=O)[C@H](CCCCN)NC(=O)[C@H](CCCNC(=N)N)NC(=O)[C@H](CC(C)C)NC(=O)[C@H](CCCCN)NC(=O)[C@@H](NC(=O)[C@H](Cc1ccc(OC)cc1)NC(=O)[C@H](CC(N)=O)NC(=O)[C@H](CC(=O)O)NC(=O)[C@@H](NC(=O)[C@H](Cc1ccccc1)NC(=O)[C@@H](NC(=O)[C@H](C)NC(=O)[C@H](CC(=O)O)NC(=O)[C@H](CO)NC(=O)[C@H](Cc1c[nH]cn1)NC(C)=O)C(C)C)[C@@H](C)O)[C@@H](C)O)C(=O)N[C@@H](C)C(=O)N[C@@H](C)C(=O)N[C@@H](CCCCN)C(=O)N[C@H]1CCCCNC(=O)C[C@@H](C(=O)N[C@H](C(=O)N[C@@H](CC(C)C)C(=O)N[C@H](C(N)=O)[C@@H](C)O)C(C)C)NC(=O)[C@H](CC(N)=O)NC(=O)[C@H](CC(C)C)NC(=O)[C@H](Cc2ccc(O)cc2)NC1=O [SEQ ID NO:41, Ac-[O-Me-Tyr^10,Lys^12,Nle^17,Ala^19,Asp^25,Val^26,Thr^28]-VIP cyclo (Lys^21 →Asp^25)] (Ac-HSDAVFTDNY(Me)TKLRKQ[Nle]AAKKYLNDVLT-NH2; lactam 21-25) |
| 0.9 | CCCC[C@H](NC(=O)[C@H](C)NC(=O)[C@H](CCCCN)NC(=O)[C@H](CCCNC(=N)N)NC(=O)[C@H](CC(C)C)NC(=O)[C@H](CCCCN)NC(=O)[C@@H](NC(=O)[C@H](Cc1ccc(O)cc1)NC(=O)[C@H](CC(N)=O)NC(=O)[C@H](CCC(=O)O)NC(=O)[C@@H](NC(=O)[C@H](Cc1ccccc1)NC(=O)[C@@H](NC(=O)[C@H](C)NC(=O)[C@H](CC(=O)O)NC(=O)[C@H](CO)NC(=O)[C@H](Cc1c[nH]cn1)NC(C)=O)C(C)C)[C@@H](C)O)[C@@H](C)O)C(=O)N[C@@H](C)C(=O)N[C@@H](C)C(=O)N[C@@H](CCCCN)C(=O)N[C@H]1CCCCNC(=O)C[C@@H](C(=O)N[C@@H](CC(C)C)C(=O)N[C@@H](CCCCN)C(=O)N[C@@H](CCCCN)C(N)=O)NC(=O)[C@H](CC(N)=O)NC(=O)[C@H](CC(C)C)NC(=O)[C@H](Cc2ccc(O)cc2)NC1=O [SEQ ID NO:63, Ac-[Glu^8,Lys^12,Ala^16,Nle^17,Ala^19,Asp^25,Leu^26,Lys^27,28]-VIP cyclo (Lys^21 →Asp^25)] (Ac-HSDAVFTENYTKLRKA[Nle]AAKKYLNDLKK-NH2; lactam 21-25) |
| 4.2 | CCCC[C@H](NC(=O)[C@H](CCC(N)=O)NC(=O)[C@H](CCCCN)NC(=O)[C@H](CCCNC(=N)N)NC(=O)[C@H](CC(C)C)NC(=O)[C@H](CC(C)C)NC(=O)[C@@H](NC(=O)[C@H](Cc1ccc2ccccc2c1)NC(=O)[C@H](CC(N)=O)NC(=O)[C@H](CC(=O)O)NC(=O)[C@@H](NC(=O)[C@H](Cc1ccccc1)NC(=O)[C@@H](NC(=O)[C@H](C)NC(=O)[C@H](CC(=O)O)NC(=O)[C@H](CO)NC(=O)[C@H](Cc1c[nH]cn1)NC(C)=O)C(C)C)[C@@H](C)O)[C@@H](C)O)C(=O)N[C@@H](C)C(=O)N[C@@H](C)C(=O)N[C@@H](CCCCN)C(=O)N[C@H]1CCCCNC(=O)C[C@@H](C(=O)N[C@H](C(=O)N[C@@H](CC(C)C)C(=O)N[C@H](C(N)=O)[C@@H](C)O)C(C)C)NC(=O)[C@H](CC(N)=O)NC(=O)[C@H](CC(C)C)NC(=O)[C@H](Cc2ccc(O)cc2)NC1=O [SEQ ID NO:35, Ac-[2-Nal^10,Leu^12,Nle^17,Ala^19,Asp^25,Val^26,Thr^28]-VIP cyclo (Lys^21 →Asp^25)] (Ac-HSDAVFTDN[2Nal]TLLRKQ[Nle]AAKKYLNDVLT-NH2; lactam 21-25) |
